Series [1] has as its target T1, BACE1 (Homo sapiens, UniProt P56817).
T1 construct: from tissue; host or cells: human brain tissue slices
In words: Cellular Aβ-lowering assay (BACE1 cell act. Aβ40). The settings on record: HEK293 cells stably expressing human APP695; Aβ40 in supernatant. It counts as cell-based. As for the experimental part: a) Human HEK293 cells which are stably transfected with a vector expressing a cDNA of the human APP wt gene (APP695) were used to assess the potency of the compounds in a cellular assay. The cells were seeded in 96-well microtiter plates in cell culture medium (Iscove, plus 10% (v/v) fetal bovine serum, glutamine, penicillin/streptomycin) to about 80% confluence and the compounds were added at a 10× concentration in 1/10 volume of medium without FCS containing 8% DMSO (final concentration of DMSO was kept at 0.8% v/v). After 18-20 hrs incubation at 37° C. and 5% CO2 in a humidified incubator the culture supernatant was harvested for the determination of Aβ40 concentrations. […] After stopping the reaction with one volume 1 N H2SO4 the reaction was measured in an ELISA reader at 450 nm wavelength. The concentrations of Aβ in the culture supernatants were calculated from a standard curve obtained with known amounts of pure Aβ peptide. […]
In a Perkin-Elmer White Optiplate-384 (Cat#6007290), 2 μl culture supernatants were combined with 2 μl of a 10× AlphaLISA Anti-hAβAcceptor beads+Biotinylated Antibody Anti-Aβ 1-40 Mix (50 μg/mL/5 nM). […] Light Emission at 615 nm was then recorded using EnVision-Alpha Reader. Levels of Aβ40 in the culture supernatants were calculated as percentage of maximum signal (cells treated with 1% DMSO without inhibitor). […]

For series [2], the system named is BACE1. The note with it: baboon, i.v. bolus, PET 0 to 120 minutes.
Protocol: The PET experiments were carried out in male baboons (papio anubis). Animals were fasted for 12 hours prior to the PET study. Baboons were initially sedated intramuscularly with Ketamine hydrochloride with restraint dosages of 5-7 mg/kg to achieve a superficial level of anesthesia and then maintained on continuous Propofol intravenous infusion @ 0.3-0.4 mg/kg/h ([…] ® Injectable Emulsion). Circulatory volume was maintained by infusion of isotonic saline. A femoral arterial catheter was inserted for blood sampling. Physiological vital signs including heart rate, ECG, blood pressure and oxygen saturation were continuously monitored throughout the study. The animal was positioned in an ECAT HRRT® brain PET scanner (High Resolution Research Tomograph, CPS Innovations, Inc., Knoxville, Tenn.). The head of the animal was fitted with a thermoplastic mask that was attached to a head holder for reproducible fixation. A 6 min transmission scan with a 1 mCi Cs-137 point source was initially done for attenuation correction. […] The radioactivity of a VOI at time T was calculated as the weighted mean and expressed in mCi/ml. […]
SUV (%)=radioactivity (nCi/ml)/106/(dose (mCi)/body weight (kg)×103)×100, where numbers were used to make the unit for radioactivity equivalent between voxel radioactivity and radioactivity dose (106) and between body weight and voxel volume (103).
Series [3] deals with T2, BACE1 (Rattus norvegicus, UniProt P56819).
T2 construct: from tissue; host or cells: rat brain (sagittal sections in vitro; brain of living rats for the ex vivo study)
In words: In vitro autoradiography in rat brain sections. In kind it is binding. The text has this: The distribution of [^3H]-5-but-2-ynyloxy-pyrazine-2-carboxylic acid [3-((R)-2-amino-5,5-difluoro-4-methyl-5,6-dihydro-4H-[1,3]oxazin-4-yl)-4-fluoro-phenyl]-amide binding sites as well as the binding specificity for BACE1 was investigated by in vitro autoradiography using male Sprague-Dawley rats. Animals were sacrificed, their brains were rapidly removed and frozen in dry ice powder. Ten μm-thick sagittal sections were cut in a Cryostat microtome and thaw-mounted on adhesion glass slides. Brain sections were first incubated for 10 min in Ringer buffer (NaCl 120 mM, KCl 5 mM, CaCl2 2 mM, MgCl2 1 mM, Tris-HCl 50 mM pH 7.4) at RT and then for 60 min in Ringer buffer containing either 1 nM or 10 nM [^3H]-5-but-2-ynyloxy-pyrazine-2-carboxylic acid [3-((R)-2-amino-5,5-difluoro-4-methyl-5,6-dihydro-4H-[1,3]oxazin-4-yl)-4-fluoro-phenyl]-amide. For the evaluation of non-specific-binding (NSB) of the radiotracer an additional series of sections was incubated with Ringer buffer containing the radiotracer and a reference BACE1 inhibitor ((S)-3-(3,6-dihydro-2H-pyran-4-yl)-7-(2-fluoropyridin-3-yl)-5′H-spiro[chromeno[2,3-c]pyridine-5,5′-oxazol]-2′-amine, CAS Nr 1215869-02-5; example 294 in WO2010030954) at 10 μM. At the end of the incubation, sections were rinsed 3×5 min in ice-cold Ringer buffer and then rapidly dipped once in distilled water at 4° C. Slide-mounted brain sections were dried under a flow of cold air for 3 h and exposed together with [^3H]-microscale to a Fuji Imaging plate for 5 days. The imaging plate was then scanned in a high resolution Fuji BAS reader. The total amount of radiotracer bound to the brain areas of interest (TB) was measured using the MCID image analysis program and expressed as fmol of bound radiotracer/mg of protein. The amount of [^3H]-5-but-2-ynyloxy-pyrazine-2-carboxylic acid [3-((R)-2-amino-5,5-difluoro-4-methyl-5,6-dihydro-4H-[1,3]oxazin-4-yl)-4-fluoro-phenyl]-amide specifically bound to BACE1 (SB) was calculated according to the formula SB=TB−NSB. […]

For series [4], the target named is T2, BACE1. Description: Ex vivo autoradiography in rats after i.v. tracer injection. As for the experimental part: The in vivo characteristics of [^3H]-5-but-2-ynyloxy-pyrazine-2-carboxylic acid [3-((R)-2-amino-5,5-difluoro-4-methyl-5,6-dihydro-4H-[1,3]oxazin-4-yl)-4-fluoro-phenyl]-amide for imaging BACE1 were analyzed by an ex vivo autoradiographical approach using young male Sprague-Dawley rats. Animals were intravenously injected with 1 mCi/kg [^3H]-5-but-2-ynyloxy-pyrazine-2-carboxylic acid [3-((R)-2-amino-5,5-difluoro-4-methyl-5,6-dihydro-4H-[1,3]oxazin-4-yl)-4-fluoro-phenyl]-amide corresponding to 37.7 nmol/kg and sacrificed at various time points post injection. To test the specificity of tracer binding in vivo, rats were pre-administered with 10 mg/kg of a reference BACE1 inhibitor ((S)-3-(3,6-dihydro-2H-pyran-4-yl)-7-(2-fluoropyridin-3-yl)-5′H-spiro[chromeno[2,3-c]pyridine-5,5′-oxazol]-2′-amine, CAS Nr 1215869-02-5; example 294 in WO2010030954) (p.o.) 3 h prior to tracer injection. Animals were sacrificed at various time points post injection (5, 15, 30, 60, 120 min p.i.), their brains were rapidly removed and frozen in dry ice powder. Ten μm-thick sagittal sections were cut in a Cryostat microtome and thaw-mounted on adhesion glass slides. Slide-mounted brain sections were dried under a flow of cold air for 3 h and exposed together with [^3H]-microscale to a Fuji Imaging plate for 5 days. The imaging plate was then scanned in a high resolution Fuji BAS reader. The total amount of radiotracer bound to the brain areas of interest (TB) was measured using the MCID image analysis program and expressed as fmol of bound radiotracer/mg of protein. The amount of [^3H]-5-but-2-ynyloxy-pyrazine-2-carboxylic acid [3-((R)-2-amino-5,5-difluoro-4-methyl-5,6-dihydro-4H-[1,3]oxazin-4-yl)-4-fluoro-phenyl]-amide specifically bound to BACE1 (SB) was calculated according to the formula SB=TB−NSB.

Broadly, the IC50 is the midpoint of a concentration-inhibition curve. A low value points to greater potency.

T2 sequence (P56819 46-501): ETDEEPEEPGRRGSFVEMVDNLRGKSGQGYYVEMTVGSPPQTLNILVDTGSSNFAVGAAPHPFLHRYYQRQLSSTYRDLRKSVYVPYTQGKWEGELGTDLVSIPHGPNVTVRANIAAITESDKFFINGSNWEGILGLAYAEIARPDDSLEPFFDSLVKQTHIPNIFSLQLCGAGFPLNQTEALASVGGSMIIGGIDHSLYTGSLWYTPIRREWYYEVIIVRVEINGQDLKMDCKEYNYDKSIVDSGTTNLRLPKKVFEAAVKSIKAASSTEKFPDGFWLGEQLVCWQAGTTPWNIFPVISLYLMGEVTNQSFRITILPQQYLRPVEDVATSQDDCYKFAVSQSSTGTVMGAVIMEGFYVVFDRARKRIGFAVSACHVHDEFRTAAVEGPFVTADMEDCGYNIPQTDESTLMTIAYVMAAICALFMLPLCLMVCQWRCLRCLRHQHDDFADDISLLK
T1 sequence (P56817 46-501): as the sequence (P56819 46-501) above, with S82G, I162V, I165L, T180S, A182V, V340I, A393L, H443Q counted along it

At BACE1 [1], `CC#CCOc1cnc(C(=O)Nc2ccc(F)c([C@@]3(C)N=C(N)OCC3(F)F)c2)cn1` [Example 1, 5-But-2-ynyloxy-pyrazine-2-carboxylic acid [3-((R)-2-amino-5,5-difluoro-4-methyl-5,6-dihydro-4H-[1,3]oxazin-4-yl)-4-fluoro-phenyl]-amide] had an IC50 of 1.1 nM.
On to `C[C@]1(c2cc(NC(=O)c3cnc(OCC#C[11CH3])cn3)ccc2F)N=C(N)OCC1(F)F` [Example 3, [^11C]-5-But-2-ynyloxy-pyrazine-2-carboxylic acid [3-((R)-2-amino-5,5-difluoro-4-methyl-5,6-dihydro-4H-[1,3]oxazin-4-yl)-4-fluoro-phenyl]-amide], for which the “brain uptake of radiotracer” value in the series with BACE1 [2] was “rapidly taken up in multiple brain areas”.
With “[^3H]-5-But-2-ynyloxy-pyrazine-2-carboxylic acid [3-((R)-2-amino-5,5-difluoro-4-methyl-5,6-dihydro-4H-[1,3]oxazin-4-yl)-4-fluoro-phenyl]-amide [Example 2]”, the “reduction of tracer binding” value on BACE1 [3] (1 nM example 2 co-incubated with 10 μM specific BACE1 inhibitor A, rat brain sections) was “more than 80%”. Moreover, at BACE1 [3] (male Sprague-Dawley rat sagittal brain sections), the “brain regions with highest densities of binding sites” value was “dentate gyms and the CA3 region of the hippocampus, the cerebellum, pallidum and substantia nigra”. Further, the “distribution of binding sites in the rat brain” value on BACE1 [3] (male Sprague-Dawley rat sagittal brain sections, 1 nM or 10 nM tracer) is reported as “widespread distribution”. The “in vivo binding after pre-treatment with BACE1 ligand A (specificity)” value at BACE1 [4] (10 mg/kg reference BACE1 inhibitor p.o. 3 h prior to tracer injection) is given as “clearly reduced”. Further, the “in vivo distribution pattern of binding (regions of highest accumulation)” value at BACE1 [4] (1 mCi/kg i.v., ex vivo autoradiography) was “highest accumulation in the dentate gyms and the CA3 region of the hippocampus, the cerebellum, pallidum and substantia nigra”. For the same compound, on BACE1 [4] (5, 15, 30, 60, 120 min post injection), the “wash-out kinetics of tracer binding” value is “favorable wash-out kinetics”.

Source of the values: patent publication US9073909B2, “[1,3]oxazines” (HOFFMANN-LA ROCHE INC., priority 2011, dated 2015).
